Measurements taken from patent US11028127B2, “Peptides capable of reactivating p53 mutants” (Yeda Research and Development Co. Ltd., priority 2013, dated 2021).
Where no end group is shown, it is not given here. The star is where a group is joined. Myristoyl = CCCCCCCCCCCCCC(=O)*

Tested on: Mut-p53
Test: Total activity score over combined assays (Table 8)
Design: scale not given here
Details: for Activity Score: Table 10 summary of activity of the peptides tested; for AS (Activity Score): total score of Table 7; for PCR, activity score / Conformation, activity score: Table 8; for PCR, activity score: head span not shown; for Conformation, activity score: the 14 score columns c4-c17 stand under the heads Conformation, DNA binding, Viability, PCR
Description: Several alternative and complementary methods to screen lead peptide candidates for conformational and functional effects on Mut-p53 were employed. For increased penetration of peptide across cell membranes each peptide contains 3-6 Arginine residues either as part of its sequence or added either at its N-terminus or its C-terminus. […] In-vitro based assays for evaluation were first performed, such as ELISA for assessment of p53 conformation and sequence-specific DNA binding of p53.

Substance | Activity Score | AS (Activity Score) | PCR, activity score | Conformation, activity score
pCAP91 (STTHIHA) | 7 | 7 |  | 
pCAP302 (LRIEPIRIR) | 6 |  |  | 
pCAP65 (THFSHHLKHRRRRRRRRRR) | 17 | 17 |  | 
pCAP21 (NHPWQFPNRWTV) | 29 | 29 |  | 
pCAP50 (WSEYDIPTPQIPP) | 0 | 0 |  | 
pCAP204 (MSTESNMPRLIQNDDRRR) | 20 |  | 5 | 
pCAP150 (IIRGNFLIGGRLRRRRRRRRR) | 26 | 26 |  | 
pCAP11 (EWKERLDKEFSLSVYQKMKF) | 16 | 16 |  | 
pCAP29 (KPDSPRV) | 0 | 0 |  | 
pCAP23 (IRILMFLIGCGR) | 22 | 22 |  | 
pCAP177 (HFSHH) | 0 | 0 |  | 
pCAP246 (RRRLDDEDVQTPTPSEYQN) | 5 |  |  | 
pCAP201 (HPTHPIRLRDNLTR) | 3 |  |  | 
pCAP170 (IRILM) | 27 | 27 |  | 
pCAP251 (RLRRVILRSYHE) | 3 |  |  | 
pCAP35 (GAMHLPWHMGTL) | 28 | 28 |  | 
pCAP164 (PLTLI) | 0 | 0 |  | 
pCAP229 (Myristoyl-PRVLPSPHTIHPSQYP) | 36 |  | 4 | 
pCAP110 (LFILVFR) | 2 | 2 |  | 
pCAP298 (RRIRDPLGNEHE) | 3 |  |  | 
pCAP85 (KLTIHHH) | 0 | 0 |  | 
pCAP259 (Myristoyl-RTLIGIIRSHHLTLIRR) | 25 |  | 2 | 
pCAP165 (SLLIG) | 0 | 0 |  | 

Substance | Activity Score | AS (Activity Score) | PCR, activity score | Conformation, activity score
pCAP28 (HTDSHPHHHHPH) | 24 | 24 |  | 
pCAP205 (RCRNRKKEKTECLQKESEK) | 5 |  |  | 
pCAP209 (HTPHPPVARTSPLQTPRR) | 0 |  |  | 
pCAP145 (HSSHHHPVHSWNRRRRRRR) | 7 | 7 |  | 
pCAP74 (IRGRIIRRKKRRQRRRRGDR) | 6 | 6 |  | 
pCAP13 (HFSHHLK) | 4 | 4 |  | 
pCAP75 (TRILCIVRKKRRQRRRRGDR) | 32 | 32 |  | 
pCAP296 (RPADRIRR) | 0 |  |  | 
pCAP168 (CRIIR) | 0 | 0 |  | 
pCAP238 (TSPHPSLPRHIYPRR) | 6 |  |  | 
pCAP313 (Myristoyl-RRREILHPEFRILYE) | 8 |  |  | 
pCAP227 (Myristoyl-RRKILFIRLMHNKH) | 67 |  | 4 | 4
pCAP176 (HPWTH) | 0 | 0 |  | 
pCAP219 (SYRHYSDHWEDRRR) | 1 |  |  | 
pCAP172 (EFHS) | 0 | 0 |  | 
pCAP3 (FWTQSIKERKMLNEHDFEVR) | 12 | 12 |  | 
pCAP202 (DEDAKFRIRILMRR) | 8 |  |  | 3
pCAP257 (Myristoyl-HSSHHHPTVQHRR) | 8 |  |  | 
pCAP315 (LHFSHIDRR) | 9 |  |  | 
pCAP155 (IRGRIIRRRRRRRRRR) | 41 | 41 |  | 
pCAP31 (PPYSQFLQWYLS) | 0 | 0 |  | 
pCAP274 (LRDPHPPERRIR) | 0 |  |  | 
pCAP136 (SILTLRLRRLRRRRRRRR) | 14 | 14 |  | 

Substance | Activity Score | AS (Activity Score) | PCR, activity score | Conformation, activity score
pCAP9 (TIIHREDEDEIEW) | 17 | 17 |  | 
pCAP281 (Myristoyl-RDFILFIRRLGRR) | 3 |  |  | 
pCAP122 (HSYSPYYTFRQH) | 5 | 5 |  | 
pCAP70 (SILTLSRGRKKRRQRRRR) | 33 | 33 |  | 
pCAP237 (HTIHVHYPGNRQPNPPLILQR) | 12 |  |  | 
pCAP318 (RPEFHSFHPIYERR) | 6 |  |  | 
pCAP287 (RDFERTIVDI) | 8 |  |  | 
pCAP319 (SHDFYPHWMRERIR) | 3 |  |  | 
pCAP6 (LGIDEDEETETAPE) | 5 | 5 |  | 
pCAP171 (PHHHS) | 0 | 0 |  | 
pCAP291 (DLQYDFPRIRR) | 0 |  |  | 
pCAP148 (WNHHHSTPHPRRRRRRRRRR) | 43 | 43 |  | 
pCAP130 (EVTFRHSVVRRRRRRRRRRR) | 13 | 13 |  | 
pCAP256 (RTLHGRRVILHEGGHSISDLK) | 2 |  |  | 
pCAP267 (KRGGRKRRGGGHRLSYFIRR) | 28 |  | 2 | 3
pCAP39 (DSLHSTY) | 2 | 2 |  | 
pCAP20 (HHPWTHHQRWS) | 13 | 13 |  | 
pCAP174 (HSTPHP) | 54 | 54 |  | 
pCAP57 (LMSNAQY) | 8 | 8 |  | 
pCAP107 (DRLSVFLFIM) | 0 | 0 |  | 
pCAP52 (SPYPIRT) | 3 | 3 |  | 
